Reference: PubChem BioAssay (NCI)
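In this assay, cells in 96-well plates receive the compound at five concentrations for 48 hours. Endpoints are linearly interpolated between the surrounding concentrations. TGI marks complete inhibition of growth.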

Experiments:
Assay in all cases: NCI tumour cell line growth inhibition, 48 h
HL-60(TB) leukemia = test system: HL-60(TB) leukemia
A549 NSCLC = test system: A549 NSCLC
IGROV1 ovarian = test system: IGROV1 ovarian
DLD-1 colon = test system: DLD-1 colon
MOLT-4 leukemia = test system: MOLT-4 leukemia
HOP-92 NSCLC = test system: HOP-92 NSCLC
SF-539 CNS = test system: SF-539 CNS
MALME-3M melanoma = test system: MALME-3M melanoma
CCRF-CEM leukemia = test system: CCRF-CEM leukemia
M19-MEL melanoma = test system: M19-MEL melanoma
SR leukemia = test system: SR leukemia
OVCAR-4 ovarian = test system: OVCAR-4 ovarian
MDA-N = test system: MDA-N
DU-145 prostate = test system: DU-145 prostate

Structure (SMILES): Cc1nc(-n2nc(-c3ccccc3)cc2-c2ccccc2)sc1C(=O)/C=C/c1ccccc1
- TGI (HL-60(TB) leukemia): > 100 µM
- TGI (A549 NSCLC): > 100 µM
- TGI (IGROV1 ovarian): > 100 µM
- TGI (DLD-1 colon): > 100 µM
- TGI (MOLT-4 leukemia): > 100 µM
- TGI (HOP-92 NSCLC): > 100 µM
- TGI (SF-539 CNS): > 100 µM
- TGI (MALME-3M melanoma): > 100 µM
- TGI (CCRF-CEM leukemia): > 100 µM
- TGI (M19-MEL melanoma): > 100 µM

Structure (SMILES): N#CC(NNC(=O)c1ccccc1O)c1c(O)ccc2ccccc12 (configuration not stated)
- TGI (HL-60(TB) leukemia): 12.2 µM
- TGI (A549 NSCLC): 26.8 µM
- TGI (SR leukemia): 40.8 µM
- TGI (OVCAR-4 ovarian): 23.3 µM
- TGI (IGROV1 ovarian): 33.9 µM
- TGI (DLD-1 colon): > 100 µM
- TGI (MOLT-4 leukemia): 37.8 µM
- TGI (HOP-92 NSCLC): 40.7 µM
- TGI (SF-539 CNS): 23.1 µM
- TGI (MALME-3M melanoma): 27.6 µM
- TGI (MDA-N): > 63.2 µM
- TGI (CCRF-CEM leukemia): > 90.9 µM
- TGI (M19-MEL melanoma): 9.62 µM
- TGI (DU-145 prostate): 18.4 µM

Structure (SMILES): COC(=O)CC1CC2(C(=O)OC)c3[nH]c4ccccc4c3CCN2C1=O (configuration not stated)
- TGI (HL-60(TB) leukemia): > 100 µM
- TGI (A549 NSCLC): > 100 µM
- TGI (SR leukemia): > 100 µM
- TGI (OVCAR-4 ovarian): > 100 µM
- TGI (IGROV1 ovarian): > 100 µM
- TGI (DLD-1 colon): > 100 µM
- TGI (MOLT-4 leukemia): > 100 µM
- TGI (HOP-92 NSCLC): > 100 µM
- TGI (SF-539 CNS): > 100 µM
- TGI (MALME-3M melanoma): > 100 µM
- TGI (CCRF-CEM leukemia): > 100 µM
- TGI (M19-MEL melanoma): > 100 µM

Structure (SMILES): O=c1[nH]c2ccc([N+](=O)[O-])cc2nc1/C(=N/Nc1ccccc1)C(O)c1ccco1 (configuration not stated)
- TGI (HL-60(TB) leukemia): > 100 µM
- TGI (A549 NSCLC): > 100 µM
- TGI (SR leukemia): > 100 µM
- TGI (OVCAR-4 ovarian): > 100 µM
- TGI (IGROV1 ovarian): > 100 µM
- TGI (DLD-1 colon): > 100 µM
- TGI (MOLT-4 leukemia): > 100 µM
- TGI (HOP-92 NSCLC): > 100 µM
- TGI (SF-539 CNS): > 100 µM
- TGI (MALME-3M melanoma): > 100 µM
- TGI (CCRF-CEM leukemia): > 100 µM
- TGI (M19-MEL melanoma): > 100 µM

Structure (SMILES): O=CC1=CCC2c3[nH]c4ccccc4c3CCN2C1 (configuration not stated)
- TGI (HL-60(TB) leukemia): > 396 µM
- TGI (A549 NSCLC): > 396 µM
- TGI (SR leukemia): > 396 µM
- TGI (IGROV1 ovarian): > 396 µM
- TGI (DLD-1 colon): 226 µM
- TGI (MOLT-4 leukemia): > 396 µM
- TGI (HOP-92 NSCLC): > 396 µM
- TGI (SF-539 CNS): > 396 µM
- TGI (MALME-3M melanoma): > 396 µM
- TGI (CCRF-CEM leukemia): > 396 µM
- TGI (M19-MEL melanoma): 206 µM

Structure (SMILES): CC1=CCN(c2ccccn2)OC1c1ccccc1 (configuration not stated)
- TGI (HL-60(TB) leukemia): > 100 µM
- TGI (A549 NSCLC): > 100 µM
- TGI (SR leukemia): > 100 µM
- TGI (OVCAR-4 ovarian): > 100 µM
- TGI (IGROV1 ovarian): > 100 µM
- TGI (DLD-1 colon): > 100 µM
- TGI (MOLT-4 leukemia): > 100 µM
- TGI (SF-539 CNS): > 100 µM
- TGI (MALME-3M melanoma): > 100 µM
- TGI (CCRF-CEM leukemia): > 100 µM
- TGI (M19-MEL melanoma): > 100 µM

Structure (SMILES): O=C1CNN=C(Cn2nc(-c3ccccc3)c3ccccc3c2=O)N1
- TGI (HL-60(TB) leukemia): > 100 µM
- TGI (A549 NSCLC): > 100 µM
- TGI (SR leukemia): > 100 µM
- TGI (OVCAR-4 ovarian): > 100 µM
- TGI (IGROV1 ovarian): > 100 µM
- TGI (DLD-1 colon): > 100 µM
- TGI (MOLT-4 leukemia): > 100 µM
- TGI (HOP-92 NSCLC): > 100 µM
- TGI (SF-539 CNS): > 100 µM
- TGI (MALME-3M melanoma): > 100 µM
- TGI (CCRF-CEM leukemia): > 100 µM
- TGI (M19-MEL melanoma): > 100 µM

Structure (SMILES): COc1ccc(-c2cc(-c3ccco3)c(C#N)c(=O)[nH]2)cc1
- TGI (HL-60(TB) leukemia): > 100 µM
- TGI (A549 NSCLC): > 100 µM
- TGI (OVCAR-4 ovarian): > 100 µM
- TGI (IGROV1 ovarian): > 100 µM
- TGI (DLD-1 colon): > 100 µM
- TGI (MOLT-4 leukemia): > 100 µM
- TGI (HOP-92 NSCLC): > 100 µM
- TGI (SF-539 CNS): 53.9 µM
- TGI (MALME-3M melanoma): 75.7 µM
- TGI (CCRF-CEM leukemia): > 100 µM
- TGI (M19-MEL melanoma): > 100 µM

Structure (SMILES): O=C(/C(=C/c1ccc(O)cc1)c1ccccc1)c1ccccc1
- TGI (HL-60(TB) leukemia): 31.6 µM
- TGI (A549 NSCLC): 41.7 µM
- TGI (SR leukemia): 61.2 µM
- TGI (OVCAR-4 ovarian): 55.2 µM
- TGI (IGROV1 ovarian): 38.3 µM
- TGI (DLD-1 colon): 31 µM
- TGI (MOLT-4 leukemia): 37.3 µM
- TGI (HOP-92 NSCLC): 18.3 µM
- TGI (SF-539 CNS): 30.3 µM
- TGI (MALME-3M melanoma): 37.1 µM
- TGI (CCRF-CEM leukemia): 80.2 µM
- TGI (M19-MEL melanoma): 32.4 µM

Structure (SMILES): CCCCCCCCCCCCCCCC(=O)OCC1OC(n2cc(F)c(=O)[nH]c2=O)C(NC(=O)N(CCCl)N=O)C(O)C1O (configuration not stated)
- TGI (HL-60(TB) leukemia): 7.69 µM
- TGI (A549 NSCLC): 7.14 µM
- TGI (SR leukemia): 5.8 µM
- TGI (OVCAR-4 ovarian): 20.5 µM
- TGI (IGROV1 ovarian): 18.1 µM
- TGI (DLD-1 colon): 12.5 µM
- TGI (MOLT-4 leukemia): > 39.9 µM
- TGI (HOP-92 NSCLC): 11.6 µM
- TGI (SF-539 CNS): 1.36 µM
- TGI (MALME-3M melanoma): 10.1 µM
- TGI (CCRF-CEM leukemia): 6.58 µM
- TGI (M19-MEL melanoma): 9.91 µM

Structure (SMILES): Cn1c(NC(=O)NC23CC4CC(CC(C4)C2)C3)nc2ccccc21
- TGI (HL-60(TB) leukemia): > 100 µM
- TGI (A549 NSCLC): > 100 µM
- TGI (SR leukemia): > 100 µM
- TGI (OVCAR-4 ovarian): 28.5 µM
- TGI (IGROV1 ovarian): > 100 µM
- TGI (DLD-1 colon): > 100 µM
- TGI (MOLT-4 leukemia): > 100 µM
- TGI (HOP-92 NSCLC): 90.6 µM
- TGI (SF-539 CNS): > 100 µM
- TGI (MALME-3M melanoma): 81.6 µM
- TGI (M19-MEL melanoma): > 100 µM

Structure (SMILES): C=CCOC(=O)N1c2ccc(O)cc2[C@@]23O[C@@]24[C@@H]1C#C/C=C\C#C[C@]3(O)C(=O)C[C@@H]4C
- TGI (HL-60(TB) leukemia): > 100 µM
- TGI (A549 NSCLC): > 100 µM
- TGI (SR leukemia): 42.3 µM
- TGI (OVCAR-4 ovarian): 50.1 µM
- TGI (IGROV1 ovarian): > 100 µM
- TGI (MOLT-4 leukemia): 49.4 µM
- TGI (HOP-92 NSCLC): > 100 µM
- TGI (SF-539 CNS): > 100 µM
- TGI (MALME-3M melanoma): > 100 µM
- TGI (MDA-N): > 100 µM
- TGI (CCRF-CEM leukemia): > 100 µM
- TGI (DU-145 prostate): > 100 µM

Structure (SMILES): COc1cc2c(cc1OC)C(=O)N(c1ccc(OCCN3CCCC3)cc1)C2=O
- TGI (HL-60(TB) leukemia): > 100 µM
- TGI (A549 NSCLC): > 100 µM
- TGI (SR leukemia): > 100 µM
- TGI (OVCAR-4 ovarian): > 100 µM
- TGI (IGROV1 ovarian): > 100 µM
- TGI (MOLT-4 leukemia): > 100 µM
- TGI (HOP-92 NSCLC): > 100 µM
- TGI (SF-539 CNS): > 100 µM
- TGI (MALME-3M melanoma): > 100 µM
- TGI (MDA-N): > 100 µM
- TGI (CCRF-CEM leukemia): > 100 µM
- TGI (DU-145 prostate): > 100 µM
